Experimental data taken from PubChem BioAssay AID1963431 (Molecular Pharmacology Branch, DTP, NCI, 2024).

Tested on: Rh18 complex spheroid viability, percent test/control
Assay: Anticancer human tumor Rh18 cell line growth inhibition [Asc];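 also: spheroids exposed to compound for 7 days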;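 as to viability, T/C: 100% = DMSO vehicle control wells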
Details: for IC50: curve of first compound; for viability, T/C: stronger effect = lower value
How it was run: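 Tumor cells were grown as complex spheroids with human endothelial cells (HUVEC) and human mesenchymal stem cells as stroma. Agents were tested alone and in combination, in half-log steps down from the clinical Cmax, or from 10 microM where Cmax was unknown.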

SMILES: O=C(c1cc(Cc2n[nH]c(=O)c3ccccc23)ccc1F)N1CCN(C(=O)C2CC2)CC1 + CNC(C)C(=O)NC1CN(S(=O)(=O)c2cccc(S(=O)(=O)N3CCC4CCC(C(=O)NC(c5ccccc5)c5ccccc5)N4C(=O)C(NC(=O)C(C)NC)C3)c2)CCC2CCC(C(=O)NC(c3ccccc3)c3ccccc3)N2C1=O
- IC50 (second compound 0.01 µM): 404000 pM
- IC50 (second compound 0.0316 µM): < 31600 pM
- IC50 (second compound 0.1 µM): < 31600 pM
- IC50 (second compound 0.316 µM): < 31600 pM
- IC50 (second compound 1 µM): < 31600 pM
- viability, T/C (second compound 0.01 µM, first compound 0.0316 µM): 60.7%
- viability, T/C (second compound 0.01 µM, first compound 0.1 µM): 48.4%
- viability, T/C (second compound 0.01 µM, first compound 0.316 µM): 49.6%
- viability, T/C (second compound 0.01 µM, first compound 1 µM): 39.4%
- viability, T/C (second compound 0.01 µM, first compound 3.16 µM): 13.2%
- viability, T/C (second compound 0.01 µM, first compound 10 µM): 16.7%
- viability, T/C (second compound 0.0316 µM, first compound 0.0316 µM): 45.8%
- viability, T/C (second compound 0.0316 µM, first compound 0.1 µM): 49.9%
- viability, T/C (second compound 0.0316 µM, first compound 0.316 µM): 46.4%
- viability, T/C (second compound 0.0316 µM, first compound 1 µM): 34.5%
- viability, T/C (second compound 0.0316 µM, first compound 3.16 µM): 16.7%
- viability, T/C (second compound 0.0316 µM, first compound 10 µM): 18.1%
- viability, T/C (second compound 0.1 µM, first compound 0.0316 µM): 42%
- viability, T/C (second compound 0.1 µM, first compound 0.1 µM): 40.2%
- viability, T/C (second compound 0.1 µM, first compound 0.316 µM): 26.7%
- viability, T/C (second compound 0.1 µM, first compound 1 µM): 27.8%
- viability, T/C (second compound 0.1 µM, first compound 3.16 µM): 11.1%
- viability, T/C (second compound 0.1 µM, first compound 10 µM): 12.8%
- viability, T/C (second compound 0.316 µM, first compound 0.0316 µM): 40%
- viability, T/C (second compound 0.316 µM, first compound 0.1 µM): 38.9%
- viability, T/C (second compound 0.316 µM, first compound 0.316 µM): 36.8%
- viability, T/C (second compound 0.316 µM, first compound 1 µM): 26.6%
- viability, T/C (second compound 0.316 µM, first compound 3.16 µM): 11.3%
- viability, T/C (second compound 0.316 µM, first compound 10 µM): 12.2%
- viability, T/C (second compound 1 µM, first compound 0.0316 µM): 32.2%
- viability, T/C (second compound 1 µM, first compound 0.1 µM): 36.8%
- viability, T/C (second compound 1 µM, first compound 0.316 µM): 32.5%
- viability, T/C (second compound 1 µM, first compound 1 µM): 26.1%
- viability, T/C (second compound 1 µM, first compound 3.16 µM): 10.8%
- viability, T/C (second compound 1 µM, first compound 10 µM): 10.9%

SMILES: Cn1ncnc1[C@H]1c2n[nH]c(=O)c3cc(F)cc(c23)N[C@@H]1c1ccc(F)cc1 + CCN1C(C(=O)NC23CCC(C(=O)O)(CC2)CC3)C(c2cccc(Cl)c2F)C2(C(=O)Nc3cc(Cl)ccc32)C12CCCCC2
- IC50 (second compound 0.03 µM): < 316 pM
- IC50 (second compound 0.0949 µM): < 316 pM
- IC50 (second compound 0.3 µM): < 316 pM
- IC50 (second compound 0.949 µM): < 316 pM
- IC50 (second compound 3 µM): < 316 pM
- viability, T/C (second compound 0.03 µM, first compound 0.000316 µM): 39%
- viability, T/C (second compound 0.03 µM, first compound 0.001 µM): 36.2%
- viability, T/C (second compound 0.03 µM, first compound 0.00316 µM): 45.6%
- viability, T/C (second compound 0.03 µM, first compound 0.01 µM): 36.1%
- viability, T/C (second compound 0.03 µM, first compound 0.0316 µM): 39.4%
- viability, T/C (second compound 0.03 µM, first compound 0.1 µM): 49%
- viability, T/C (second compound 0.0949 µM, first compound 0.000316 µM): 22.7%
- viability, T/C (second compound 0.0949 µM, first compound 0.001 µM): 27.1%
- viability, T/C (second compound 0.0949 µM, first compound 0.00316 µM): 25.6%
- viability, T/C (second compound 0.0949 µM, first compound 0.01 µM): 26.6%
- viability, T/C (second compound 0.0949 µM, first compound 0.0316 µM): 25.5%
- viability, T/C (second compound 0.0949 µM, first compound 0.1 µM): 25.3%
- viability, T/C (second compound 0.3 µM, first compound 0.000316 µM): 13.3%
- viability, T/C (second compound 0.3 µM, first compound 0.001 µM): 15.4%
- viability, T/C (second compound 0.3 µM, first compound 0.00316 µM): 13%
- viability, T/C (second compound 0.3 µM, first compound 0.01 µM): 13.1%
- viability, T/C (second compound 0.3 µM, first compound 0.0316 µM): 13.3%
- viability, T/C (second compound 0.3 µM, first compound 0.1 µM): 13.3%
- viability, T/C (second compound 0.949 µM, first compound 0.000316 µM): 11.1%
- viability, T/C (second compound 0.949 µM, first compound 0.001 µM): 11.2%
- viability, T/C (second compound 0.949 µM, first compound 0.00316 µM): 11.7%
- viability, T/C (second compound 0.949 µM, first compound 0.01 µM): 10.4%
- viability, T/C (second compound 0.949 µM, first compound 0.0316 µM): 9.91%
- viability, T/C (second compound 0.949 µM, first compound 0.1 µM): 9.54%
- viability, T/C (second compound 3 µM, first compound 0.000316 µM): 9.71%
- viability, T/C (second compound 3 µM, first compound 0.001 µM): 9.49%
- viability, T/C (second compound 3 µM, first compound 0.00316 µM): 9.33%
- viability, T/C (second compound 3 µM, first compound 0.01 µM): 7.51%
- viability, T/C (second compound 3 µM, first compound 0.0316 µM): 8.46%
- viability, T/C (second compound 3 µM, first compound 0.1 µM): 7.12%

SMILES: NC(=O)C(=Cn1cnc(-c2cc(C(F)(F)F)cc(C(F)(F)F)c2)n1)c1cncnc1 + CCN1C(C(=O)NC23CCC(C(=O)O)(CC2)CC3)C(c2cccc(Cl)c2F)C2(C(=O)Nc3cc(Cl)ccc32)C12CCCCC2
- IC50 (second compound 0.03 µM): < 949 pM
- IC50 (second compound 0.0949 µM): < 949 pM
- IC50 (second compound 0.3 µM): < 949 pM
- IC50 (second compound 0.949 µM): < 949 pM
- IC50 (second compound 3 µM): < 949 pM
- viability, T/C (second compound 0.03 µM, first compound 0.000949 µM): 39.2%
- viability, T/C (second compound 0.03 µM, first compound 0.003 µM): 32%
- viability, T/C (second compound 0.03 µM, first compound 0.00949 µM): 37.7%
- viability, T/C (second compound 0.03 µM, first compound 0.03 µM): 32%
- viability, T/C (second compound 0.03 µM, first compound 0.0949 µM): 26.6%
- viability, T/C (second compound 0.03 µM, first compound 0.3 µM): 22.1%
- viability, T/C (second compound 0.0949 µM, first compound 0.000949 µM): 19.4%
- viability, T/C (second compound 0.0949 µM, first compound 0.003 µM): 18.7%
- viability, T/C (second compound 0.0949 µM, first compound 0.00949 µM): 16.7%
- viability, T/C (second compound 0.0949 µM, first compound 0.03 µM): 12.7%
- viability, T/C (second compound 0.0949 µM, first compound 0.0949 µM): 9.47%
- viability, T/C (second compound 0.0949 µM, first compound 0.3 µM): 4.98%
- viability, T/C (second compound 0.3 µM, first compound 0.000949 µM): 9.47%
- viability, T/C (second compound 0.3 µM, first compound 0.003 µM): 9.88%
- viability, T/C (second compound 0.3 µM, first compound 0.00949 µM): 9.7%
- viability, T/C (second compound 0.3 µM, first compound 0.03 µM): 6.03%
- viability, T/C (second compound 0.3 µM, first compound 0.0949 µM): 5%
- viability, T/C (second compound 0.3 µM, first compound 0.3 µM): 1.69%
- viability, T/C (second compound 0.949 µM, first compound 0.000949 µM): 7.7%
- viability, T/C (second compound 0.949 µM, first compound 0.003 µM): 9.36%
- viability, T/C (second compound 0.949 µM, first compound 0.00949 µM): 6.31%
- viability, T/C (second compound 0.949 µM, first compound 0.03 µM): 4.21%
- viability, T/C (second compound 0.949 µM, first compound 0.0949 µM): 3.62%
- viability, T/C (second compound 0.949 µM, first compound 0.3 µM): 1.42%
- viability, T/C (second compound 3 µM, first compound 0.000949 µM): 6.6%
- viability, T/C (second compound 3 µM, first compound 0.003 µM): 6.14%
- viability, T/C (second compound 3 µM, first compound 0.00949 µM): 5.36%
- viability, T/C (second compound 3 µM, first compound 0.03 µM): 4.12%
- viability, T/C (second compound 3 µM, first compound 0.0949 µM): 2.88%
- viability, T/C (second compound 3 µM, first compound 0.3 µM): 1.03%
